According to publication PMC12389735, “Polyoxypregnane Aryl Esters Prepared from Metaplexis japonica (Thunb.) Makino and Their Role in Reversing Multidrug Resistance in HepG2/Dox Cells” (Pharmaceuticals, 2025):
Each block holds one molecule with its values, some of them ahead of it.

How the values were obtained:
HepG2/Dox cells [1] = assay: CCK-8 cell viability / reversal of P-gp-mediated MDR in HepG2/Dox cells; format: cell-based, Human; conditions: for IC50: Homo sapiens, HepG2/Dox, anticancer drug alone, CCK-8, read-out: IC50 ± SD HepG2/Dox; for IC50 / Cytotoxicity to HepG2/Dox cells (viability): 48 h; for Fsen (fold increase in sensitivity): drug alone (reference); for Fres (fold of resistance): drug alone, IC50 in HepG2/Dox / IC50 in HepG2; for Cytotoxicity to HepG2/Dox cells (viability): compound alone at 5 or 10 μM; for Reversal of resistance of HepG2/Dox cells to paclitaxel and vinblastine: non-cytotoxic concentrations (10 μM)
caspase 9 = assay: Western blotting of caspase 9 expression in HepG2/Dox cells; format: cell-based, Human
Experimental: (§1) In 100 mm culture dishes, 1 × 10^6 cells in 10 mL medium were seeded and incubated for 24 h, and then incubated with the test sample in 10 mL fresh medium for another 24 h. Total proteins were extracted using RIPA cell lysis buffer containing PMSF while protein content was determined using the BCA kit. An equal amount of the protein sample was subjected to SDS-PAGE for separation and transferred to PVDF membranes. The membranes were blocked in 5% defat milk at RT for 1 h, and then incubated with the primary antibody of the protein of interest (P-gp, caspase 8 or caspase 9) or GAPDH (internal standard) at 4 °C overnight, and then with the secondary antibody at RT for 1 h. Protein bands were detected under the chemiluminescence scanner, while Image J was employed to analyze the gray value of the protein bands.

caspase 8 = assay: Western blotting of caspase 8 expression in HepG2/Dox cells; format: cell-based, Human
Experimental: as §1

HepG2/Dox cells [2] = assay: Annexin V/PI apoptosis by flow cytometry in HepG2/Dox cells; format: cell-based, Human; conditions: 24 h; for Apoptosis rates of HepG2/Dox cells: 10 μM in combination with 500 nM paclitaxel, vs PTX alone
Experimental: Cells were then incubated for another 24 h in 2 mL fresh medium containing the test samples. The medium and cells (digested by EDTA-free trypsin) were collected and centrifuged (1000 rpm, 5 min). The cells were then suspended in PBS and stained using the Annexin V/PI kit by following the procedures provided with the kit, and the apoptosis rate of cells with different treatments was analyzed using flow cytometry.

[3] = Bidirectional transport assay on Caco-2 cell monolayers; conditions: human; for Papp B→A at 2 h: Caco-2, pH 7.4; for Papp A→B at 2 h: Caco-2, pH 7.4, A→B Transport Papp, pH 7.40; for Papp A→B at 2 h / recovery at 2 h: compound 1, 1a 2 μM, digoxin 10 μM; for Papp A→B at 2 h, 2 μM: Caco-2, pH 7.4, Apparent permeability coefficient (Papp) from AP to BL
Caco-2 cell monolayers = assay: as above; conditions: from ER values of less than 2
Human ABCB1 = molecular target: T1, Human ABCB1 (Homo sapiens, UniProt P08183); assay: Surface plasmon resonance binding to full-length ABCB1 (Biacore); conditions: SPR; for Kd: CM5 chip, read-out: KD (equilibrium dissociation constant)
T1 construct: Flag; purchased MedChemExpress HY-P703175; host or cells: HEK293
Experimental: The human recombinant ABCB1 full-length protein (HEK293, Flag) (MedChemExpress, Monmouth Junction, NJ, USA; #HY-P703175) was coupled onto a CM5 sensor chip (Cytiva, Marlborough, MA, USA; #BR-1005-30) via carboxyl groups on the dextran. After incubation, a series of concentrations of compound 1 or 1a flowed through the protein–CM5 system. Binding was tested and analyzed using a Biacore K8 instrument (GE Healthcare, Chicago, IL, USA) and Biacore Insight evaluation software (https://www.cytivalifesciences.com/en/us, accessed on 5 August 2025) (Cytiva, Marlborough, MA, USA).

P-gp [4] = molecular target: T2, P-gp (Homo sapiens, UniProt P08183); assay: Rhodamine 123 efflux assay for P-gp function in HepG2/Dox cells; format: cell-based; conditions: 10 μM, 5 μM Rh-123, 40 min; vs Rh-123 alone
T2 construct: Doxorubicin-induced P-gp overexpression HepG2/Dox subline was a gift from Prof; Fong; endogenous in cells; host or cells: HepG2/Dox (doxorubicin-induced P-gp-overexpressing subline of HepG2)
Experimental: After removal of the medium via centrifugation, the cells were washed with ice-cold PBS twice, resuspended in 300 μL ice-cold PBS, and transferred into flow cytometer tubes. Cellular fluorescence intensity was analyzed immediately using flow cytometry.

P-gp [5] = assay: Western blotting of P-gp expression in HepG2/Dox cells; format: cell-based, Human; conditions: alone or in combination with paclitaxel
Experimental: as §1

[6] = alone: paclitaxel 0.5 μM, compound 1 or 1a 10 μM
[7] = Caco-2, pH 7.4, A→B Transport Solution Recovery %
[8] = Caco-2, pH 7.4, B→A Transport Solution Recovery %
[9] = 10 μM combined with paclitaxel 0.5 μM

T1 sequence (P08183 whole entry): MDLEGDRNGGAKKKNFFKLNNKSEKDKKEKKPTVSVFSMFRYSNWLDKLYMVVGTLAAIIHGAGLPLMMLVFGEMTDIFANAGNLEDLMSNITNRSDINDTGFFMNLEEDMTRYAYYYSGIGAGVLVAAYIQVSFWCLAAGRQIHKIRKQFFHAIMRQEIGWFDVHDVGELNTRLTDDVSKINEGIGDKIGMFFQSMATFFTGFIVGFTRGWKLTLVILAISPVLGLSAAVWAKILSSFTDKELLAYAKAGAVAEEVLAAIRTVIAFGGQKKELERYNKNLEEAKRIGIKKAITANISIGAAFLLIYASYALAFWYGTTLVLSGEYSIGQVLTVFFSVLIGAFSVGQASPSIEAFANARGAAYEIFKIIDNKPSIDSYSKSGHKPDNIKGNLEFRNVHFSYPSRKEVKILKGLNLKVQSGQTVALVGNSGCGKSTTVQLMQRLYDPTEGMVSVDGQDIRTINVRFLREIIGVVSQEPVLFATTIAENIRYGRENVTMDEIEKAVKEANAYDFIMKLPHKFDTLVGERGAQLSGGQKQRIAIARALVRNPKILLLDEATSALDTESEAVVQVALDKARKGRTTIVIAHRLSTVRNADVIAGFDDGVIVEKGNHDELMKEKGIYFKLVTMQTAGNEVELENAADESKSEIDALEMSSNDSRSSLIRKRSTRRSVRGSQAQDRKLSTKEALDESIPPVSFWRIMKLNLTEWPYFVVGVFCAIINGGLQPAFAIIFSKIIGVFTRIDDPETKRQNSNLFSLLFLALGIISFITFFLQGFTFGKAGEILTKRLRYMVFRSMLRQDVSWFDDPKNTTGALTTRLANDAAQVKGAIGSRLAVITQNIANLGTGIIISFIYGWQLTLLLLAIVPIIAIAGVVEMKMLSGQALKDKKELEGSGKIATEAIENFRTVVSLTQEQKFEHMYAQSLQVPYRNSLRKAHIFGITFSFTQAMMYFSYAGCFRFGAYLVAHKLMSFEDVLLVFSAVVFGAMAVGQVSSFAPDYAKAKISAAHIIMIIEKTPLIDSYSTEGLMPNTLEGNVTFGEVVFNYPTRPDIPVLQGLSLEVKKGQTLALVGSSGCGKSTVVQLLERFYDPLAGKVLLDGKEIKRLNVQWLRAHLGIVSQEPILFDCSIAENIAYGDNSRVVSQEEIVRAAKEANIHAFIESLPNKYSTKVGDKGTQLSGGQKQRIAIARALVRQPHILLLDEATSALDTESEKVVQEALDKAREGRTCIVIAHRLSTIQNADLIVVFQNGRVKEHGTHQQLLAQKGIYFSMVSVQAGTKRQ
T2 sequence (P08183 whole entry): as above

Structure (SMILES): C[C@H]1O[C@@H](O[C@H]2[C@@H](O)C[C@H](O[C@H]3[C@@H](O)C[C@H](O[C@H]4CC[C@@]5(C)[C@H](CC[C@@H]6[C@@H]5C[C@@H](O)[C@]5(C)[C@@H](C7=CC(=O)OC7)CC[C@]65O)C4)O[C@@H]3C)O[C@@H]2C)C[C@H](O)[C@@H]1O [Digoxin, reference compound]
Papp B→A at 2 h [3]: 22.3 ± 1.02 ×10⁻⁶ cm/s
Papp A→B at 2 h [3]: 0.12 ± 0.02 ×10⁻⁶ cm/s
recovery at 2 h [3, 7]: 97.9 ± 8.1%
recovery at 2 h [3, 8]: 94.4 ± 1.9%

Structure (SMILES): CC(O)C1(O)CCC2(O)C3CCC4CC(OC(=O)c5cccnc5)CCC4(C)C3CC(OC(=O)C=Cc3ccccc3)C12C [Compound 1a, 3β,12β,14β,17β,20(S)-pentahydroxy-5α-pregnan-3β-O-nicotinate-12β-O-(E)-cinnamate]
Papp B→A at 2 h [3]: 0.24 ± 0.02 ×10⁻⁶ cm/s
Papp A→B at 2 h, 2 μM [3]: 0.27 ×10⁻⁶ cm/s
Papp A→B at 2 h [3]: 0.27 ± 0.03 ×10⁻⁶ cm/s
recovery at 2 h [3, 7]: 5.3 ± 0.5%
recovery at 2 h [3, 8]: 12.2 ± 0.7%
P-gp substrate status (Caco-2 cell monolayers): not P-gp substrates
Ka (association rate constant) (Human ABCB1): 41600 M⁻¹ s⁻¹
Kd (dissociation rate constant) (Human ABCB1): 0.155 s⁻¹
Kd (Human ABCB1): 3.72 µM
Ka (association rate constant) (Human ABCB1; listed as compound 1a): > 10^4 M^−1s^−1
koff (Human ABCB1; read-out: Kd (dissociation rate constant)): > 0.1 s⁻¹
Cytotoxicity to HepG2/Dox cells (viability) (HepG2/Dox cells [1]): non-cytotoxic
Fres to doxorubicin (HepG2/Dox cells [1]; doxorubicin + modulator 5 µM): 1.9
Fsen to doxorubicin (HepG2/Dox cells [1]; doxorubicin + modulator 5 µM): 18.8
Fres to doxorubicin (HepG2/Dox cells [1]; doxorubicin + modulator 10 µM): 4.1
Fsen to doxorubicin (reversal fold) (HepG2/Dox cells [1]; doxorubicin + modulator 10 µM): 18.8
Fsen to doxorubicin (reversal fold) (HepG2/Dox cells [1]; doxorubicin + modulator 10 µM, listed as compound 1a): 8.6
Reversal of resistance of HepG2/Dox cells to paclitaxel and vinblastine (HepG2/Dox cells [1]): completely reversed
Fres to paclitaxel (HepG2/Dox cells [1]; paclitaxel + modulator 5 µM): 0.8
Fsen to paclitaxel (HepG2/Dox cells [1]; paclitaxel + modulator 5 µM): 155.0
Fres to paclitaxel (HepG2/Dox cells [1]; paclitaxel + modulator 10 µM): 0.4
Fsen to paclitaxel (reversal fold) (HepG2/Dox cells [1]; paclitaxel + modulator 10 µM): 335.8
Fres to vinblastine (HepG2/Dox cells [1]; vinblastine + modulator 5 µM): 1.8
Fsen to vinblastine (HepG2/Dox cells [1]; vinblastine + modulator 5 µM): 79.3
Fres to vinblastine (HepG2/Dox cells [1]; vinblastine + modulator 10 µM): 1.0
Fsen to vinblastine (reversal fold) (HepG2/Dox cells [1]; vinblastine + modulator 10 µM): 140
Fluorescence intensity of Rh-123 in cells (inhibited efflux) (P-gp [4]): significantly increased
Expression level of cellular P-gp (P-gp [5]): did not influence
Expression of caspase 9 (caspase 9; [9]): significantly upregulated
Expression of caspase 9 (caspase 9; [6]): did not change
Expression of caspase 8 (caspase 8; [9]): did not change
Expression of caspase 8 (caspase 8; [6]): did not change
Apoptosis rates of HepG2/Dox cells (HepG2/Dox cells [2]): significantly increased

Structure (SMILES): CC(O)C1(O)CCC2(O)C3CCC4CC(O)CCC4(C)C3CC(OC(=O)C=Cc3ccccc3)C12C [Compound 1, 3β,12β,14β,17β,20(S)-pentahydroxy-5α-pregnan-12β-O-(E)-cinnamate]
Papp B→A at 2 h [3]: 7.71 ± 0.61 ×10⁻⁶ cm/s
Papp A→B at 2 h, 2 μM [3]: 9.28 ×10⁻⁶ cm/s
Papp A→B at 2 h [3]: 9.28 ± 0.88 ×10⁻⁶ cm/s
recovery at 2 h [3, 7]: 44.6 ± 2.3%
recovery at 2 h [3, 8]: 50.4 ± 1.7%
P-gp substrate status (Caco-2 cell monolayers): not P-gp substrates
Ka (association rate constant) (Human ABCB1): 65800 M⁻¹ s⁻¹
Kd (dissociation rate constant) (Human ABCB1): 0.364 s⁻¹
Kd (Human ABCB1): 5.53 µM
Ka (association rate constant) (Human ABCB1; listed as compound 1): > 10^4 M^−1s^−1
Kd (dissociation rate constant) (Human ABCB1; listed as compound 1): > 10^−1 s^−1
Cytotoxicity to HepG2/Dox cells (viability) (HepG2/Dox cells [1]): non-cytotoxic
Fres to doxorubicin (HepG2/Dox cells [1]; doxorubicin + modulator 5 µM): 13.7
Fsen to doxorubicin (HepG2/Dox cells [1]; doxorubicin + modulator 5 µM): 2.6
Fres to doxorubicin (HepG2/Dox cells [1]; doxorubicin + modulator 10 µM): 5.0
Fsen to doxorubicin (reversal fold) (HepG2/Dox cells [1]; doxorubicin + modulator 10 µM): 7.1
Reversal of resistance of HepG2/Dox cells to paclitaxel and vinblastine (HepG2/Dox cells [1]): completely reversed
Fres to paclitaxel (HepG2/Dox cells [1]; paclitaxel + modulator 5 µM): 3.9
Fsen to paclitaxel (HepG2/Dox cells [1]; paclitaxel + modulator 5 µM): 33.6
Fres to paclitaxel (HepG2/Dox cells [1]; paclitaxel + modulator 10 µM): 1.1
Fsen to paclitaxel (reversal fold) (HepG2/Dox cells [1]; paclitaxel + modulator 10 µM): 118.5
Fres to vinblastine (HepG2/Dox cells [1]; vinblastine + modulator 5 µM): 1.5
Fsen to vinblastine (HepG2/Dox cells [1]; vinblastine + modulator 5 µM): 91.5
Fres to vinblastine (HepG2/Dox cells [1]; vinblastine + modulator 10 µM): 0.7
Fsen to vinblastine (reversal fold) (HepG2/Dox cells [1]; vinblastine + modulator 10 µM): 198.3
Fluorescence intensity of Rh-123 in cells (inhibited efflux) (P-gp [4]): significantly increased
Expression level of cellular P-gp (P-gp [5]): did not influence
Expression of caspase 9 (caspase 9; [9]): significantly upregulated
Expression of caspase 9 (caspase 9; [6]): did not change
Expression of caspase 8 (caspase 8; [9]): did not change
Expression of caspase 8 (caspase 8; [6]): did not change
Apoptosis rates of HepG2/Dox cells (HepG2/Dox cells [2]): significantly increased

Structure (SMILES): COc1ccc(CCN(C)CCCC(C#N)(c2ccc(OC)c(OC)c2)C(C)C)cc1OC (stereo not drawn) [VRP, Verapamil, reference compound]
Fres to doxorubicin (HepG2/Dox cells [1]; doxorubicin + modulator 10 µM): 1.1
Fres to paclitaxel (HepG2/Dox cells [1]; paclitaxel + modulator 10 µM): 1.3
Fres to vinblastine (HepG2/Dox cells [1]; vinblastine + modulator 10 µM): 2.1
Apoptosis rates of HepG2/Dox cells (HepG2/Dox cells [2]): significantly increased

Now from value to molecule, other results behind:

IC50 (HepG2/Dox cells [1]): 4.03 ± 0.06 µM
Structure (SMILES): CC(=O)O[C@H]1C(=O)[C@@]2(C)[C@H]([C@H](OC(=O)c3ccccc3)[C@]3(O)C[C@H](OC(=O)[C@H](O)[C@@H](NC(=O)c4ccccc4)c4ccccc4)C(C)=C1C3(C)C)[C@]1(OC(C)=O)CO[C@@H]1C[C@@H]2O [Paclitaxel, reference compound]
Expression of caspase 9 (caspase 9; [6]): did not change
Expression of caspase 8 (caspase 8; [6]): did not change
Cell apoptosis in HepG2/Dox cells (HepG2/Dox cells [2]; 500 nM alone): did not induce cell apoptosis

IC50 (HepG2/Dox cells [1]): 2.38 ± 0.62 µM
Structure (SMILES): CC[C@]1(O)C[C@@H]2CN(CCc3c([nH]c4ccccc34)[C@@](C(=O)OC)(c3cc4c(cc3OC)N(C)[C@H]3[C@@](O)(C(=O)OC)[C@H](OC(C)=O)[C@]5(CC)C=CCN6CC[C@]43[C@@H]65)C2)C1 [Vinblastine, reference compound]
Fsen (fold increase in sensitivity) (HepG2/Dox cells [1]): 1
Fres (fold of resistance) (HepG2/Dox cells [1]): 140.0
Fres (fold of resistance) (HepG2/Dox cells [1]; listed as vinblastine): 140

IC50 (HepG2/Dox cells [1]): 6.03 ± 1.15 µM
Structure (SMILES): COc1cccc2c1C(=O)c1c(O)c3c(c(O)c1C2=O)C[C@@](O)(C(=O)CO)C[C@@H]3O[C@H]1C[C@H](N)[C@H](O)[C@H](C)O1 [Doxorubicin, reference compound]
Fsen (fold increase in sensitivity) (HepG2/Dox cells [1]): 1
Fres (fold of resistance) (HepG2/Dox cells [1]): 35.5
